Key:
Format in all cases: in vivo
[1] = tested on: Rhizoctonia solani; assay: rice sheath blight control on rice seedlings; details: Rhizoctonia solani, 168 h, 7 days
Procedure: Several compounds of the previous examples were again dissolved in acetone in an amount equal to 6% of the final volume and then suspended at a concentration of 100 ppm in purified water containing 250 ppm of the surfactant TREM 014 (polyhydric alcohol esters). This suspension was sprayed to the point of run-off on rice seedlings. The following day, the plants were inoculated with a mixture of bran and the mycelium of Rhizoctonia solani, causal agent of sheath blight of rice, and incubated in a growth room for 7 days. Disease ratings were then made. Treated plants from successful treatments had little sheath blight in contrast to untreated plants which were covered with sheath blight.

[2] = tested on: Venturia inaequalis; assay: apple scab control on apple seedlings; details: Venturia inaequalis; 100 ppm
Procedure: (§1) Compounds of this invention were dissolved in acetone in an amount equal to 6% of the final volume and then suspended at a concentration of 100 ppm in purified water containing 250 ppm of the surfactant TREM 014 (polyhydric alcohol esters). This suspension was sprayed to the point of run-off on apple seedlings. The following day, the plants were inoculated with a spore suspension of the fungus Venturia inaequalis, causal agent of apple scab, and incubated in a saturated humidity chamber at 20° for 24 hours and then in a growth room for an additional 10-12 days. Treated plants from successful treatments had few or no apple scab lesions when compared to untreated plants which were covered with scab lesions.

[3] = tested on: Pyricularia oryzae; assay: whole plant or invertebrate; details: 168 h, read-out: % Control of Rice Blast
[4] = tested on: Erysiphe cichoracearum; assay: cucumber powdery mildew control on cucumber seedlings; details: Golovinomyces cichoracearum, 168 h, 7 days
Procedure: Compounds of the previous examples were again dissolved in acetone in an amount equal to 6% of the final volume and then suspended at a concentration of 100 ppm in purified water containing 250 ppm of the surfactant TREM 014 (polyhydric alcohol esters). This suspension was sprayed to the point of run-off on cucumber seedlings. The following day, the plants were inoculated with a spore suspension of the fungus Erysiphe cichoracearum, causal agent of cucumber powdery mildew, and incubated in a growth room for 7 days. Disease ratings were then made. Treated plants from successful treatments had little or no powdery mildew in contrast to untreated plants which were covered with powdery mildew.

[5] = tested on: Puccinia recondita var. tritici; assay: wheat leaf rust control on wheat seedlings; details: 100 ppm, sprayed day before inoculation
Procedure: as §1, with “wheat” for “apple”, “Puccinia recondita var. tritici,” for “the fungus Venturia inaequalis,”, “wheat leaf rust,” for “apple scab,”, “7 days, when disease ratings were made.” for “10-12 days.”, “rust pustules while the” for “apple scab lesions when compared to”, “had numerous rust pustules on each leaf.” for “which were covered with scab lesions.”

[6] = tested on: Cercospora arachidicola; assay: peanut early leafspot control on peanut seedlings; details: Mycosphaerella arachidis, 336 h
Procedure: Compounds of the previous examples were again dissolved in acetone in an amount equal to 6% of the final volume and then suspended at a concentration of 100 ppm in purified water containing 250 ppm of the surfactant TREM 014 (polyhydric alcohol esters). This suspension was sprayed to the point of run-off on peanut seedlings. The following day, the plants were inoculated with a spore suspension of Cercospora arachidicola, causal agent of peanut early leafspot, and incubated in a saturated humidity chamber at 27° for 24 hours and then in a growth room for an additional 14 days, when disease ratings were made. Treated plants from successful treatments had few or no leafspots while the untreated plants had numerous leafspots on each leaf.

[7] = tested on: Phytophthora infestans; assay: whole plant or invertebrate; details: Phytophthora infestans, in Solanum lycopersicum, 168 h, read-out: % Control of Tomato Late Blight
[8] = tested on: Helminthosporium maydis; assay: southern corn leaf blight control on corn seedlings; details: Bipolaris maydis, 168 h
Procedure: Compounds of the previous example were again dissolved in acetone in an amount equal to 6% of the final volume and then suspended at a concentration of 100 ppm in purified water containing 250 ppm of the surfactant TREM 014 (polyhydric alcohol esters). This suspension was sprayed to the point of run-off on corn seedlings. The following day, the plants were inoculated with a spore suspension of Helminthosporium maydis, causal agent of southern corn leaf blight, and incubated in a saturated humidity chamber at 20° for 24 hours and then in a growth room for an additional 7 days, when disease ratings were made. Treated plants from successful treatments had few lesions while the untreated plants had numerous lesions on each leaf.

C[Si](C)(Cn1ccnc1)c1ccc(-c2ccc(Br)cc2)cc1 [(4'-Bromo-1,1'-biphenyl-4-yl)dimethyl(1H-imidazol-1-ylmethyl)silane]
pest or weed control at 100 ppm [1]: 90% | pest or weed control at 100 ppm [2]: 50% | pest or weed control at 100 ppm [3]: 90% | pest or weed control at 100 ppm [4]: 100% | pest or weed control at 100 ppm [5]: 100% | pest or weed control at 100 ppm [6]: 90% | pest or weed control at 100 ppm [7]: 0% | pest or weed control at 100 ppm [8]: 0%

C[Si](C)(Cn1ccnc1)c1ccc(Br)cc1 [(4-Bromophenyl)(1H-imidazol-1-ylmethyl)dimethylsilane]
pest or weed control at 100 ppm [1]: 0% | pest or weed control at 100 ppm [2]: 0% | pest or weed control at 100 ppm [3]: 0% | pest or weed control at 100 ppm [4]: 100% | pest or weed control at 100 ppm [5]: 0% | pest or weed control at 100 ppm [6]: 0% | pest or weed control at 100 ppm [7]: 30% | pest or weed control at 100 ppm [8]: 0%

C[Si](Cn1ccnc1)(c1ccccc1)c1ccc(Br)cc1 (stereo not drawn) [(4-Bromophenyl)(1H-imidazol-1-ylmethyl)methyl(phenyl)silane]
pest or weed control at 100 ppm [1]: 0% | pest or weed control at 100 ppm [2]: 30% | pest or weed control at 100 ppm [3]: 0% | pest or weed control at 100 ppm [4]: 100% | pest or weed control at 100 ppm [5]: 90% | pest or weed control at 100 ppm [6]: 90% | pest or weed control at 100 ppm [7]: 0% | pest or weed control at 100 ppm [8]: 0%

C[Si](C)(Cn1ccnc1)c1ccc(S(C)(=O)=O)cc1 [Dimethyl(1H-imidazol-1-ylmethyl)(4-methylsulfonylphenyl)silane]
pest or weed control at 100 ppm [1]: 0% | pest or weed control at 100 ppm [2]: 80% | pest or weed control at 100 ppm [3]: 100% | pest or weed control at 100 ppm [4]: 0% | pest or weed control at 100 ppm [5]: 0% | pest or weed control at 100 ppm [6]: 0% | pest or weed control at 100 ppm [7]: 0% | pest or weed control at 100 ppm [8]: 0%

CSc1ccc([Si](C)(C)Cn2ccnc2)cc1 [Dimethyl(1H-imidazol-1-ylmethyl)(4-methylthiophenyl)silane]
pest or weed control at 100 ppm [1]: 0% | pest or weed control at 100 ppm [2]: 0% | pest or weed control at 100 ppm [3]: 0% | pest or weed control at 100 ppm [4]: 100% | pest or weed control at 100 ppm [5]: 0% | pest or weed control at 100 ppm [6]: 0% | pest or weed control at 100 ppm [7]: 0% | pest or weed control at 100 ppm [8]: 0%

CCCCCCCCCCCCCCCCCC[Si](C)(C)Cn1ccnc1 [Dimethyl(1H-imidazol-1-ylmethyl)octadecylsilane]
pest or weed control at 100 ppm [1]: 100% | pest or weed control at 100 ppm [2]: 80% | pest or weed control at 100 ppm [3]: 80% | pest or weed control at 100 ppm [4]: 0% | pest or weed control at 100 ppm [5]: 0% | pest or weed control at 100 ppm [6]: 0% | pest or weed control at 100 ppm [7]: 0% | pest or weed control at 100 ppm [8]: 0%

CC(C)(C)c1ccc([Si](C)(C)Cn2ccnc2)cc1 [[4-(1,1-Dimethylethyl)phenyl](1H-imidazol-1-ylmethyl)dimethylsilane]
pest or weed control at 100 ppm [1]: 0% | pest or weed control at 100 ppm [2]: 50% | pest or weed control at 100 ppm [3]: 80% | pest or weed control at 100 ppm [4]: 80% | pest or weed control at 100 ppm [5]: 0% | pest or weed control at 100 ppm [6]: 0% | pest or weed control at 100 ppm [7]: 0% | pest or weed control at 100 ppm [8]: 70%

C[Si](Cn1ccnc1)(c1ccccc1Cl)c1ccccc1Cl [[bis(2-Chlorophenyl)](1H-imidazol-1-ylmethyl)methylsilane]
pest or weed control at 100 ppm [1]: 40% | pest or weed control at 100 ppm [2]: 60% | pest or weed control at 100 ppm [3]: 90% | pest or weed control at 100 ppm [4]: 100% | pest or weed control at 100 ppm [5]: 0% | pest or weed control at 100 ppm [6]: 100% | pest or weed control at 100 ppm [7]: 60% | pest or weed control at 100 ppm [8]: 90%

C[Si](Cn1ccnc1)(c1ccc(Br)cc1)c1ccc(Br)cc1 [[bis(4-Bromophenyl)](1H-imidazol-1-ylmethyl)methylsilane]
pest or weed control at 100 ppm [1]: 0% | pest or weed control at 100 ppm [2]: 50% | pest or weed control at 100 ppm [3]: 80% | pest or weed control at 100 ppm [4]: 100% | pest or weed control at 100 ppm [5]: 0% | pest or weed control at 100 ppm [6]: 50% | pest or weed control at 100 ppm [7]: 0% | pest or weed control at 100 ppm [8]: 0%

O[Si](Cn1ccnc1)(c1ccc(Cl)cc1)c1ccc(Cl)cc1 [[bis(4-chlorophenyl)]hydroxy(1H-imidazol-1-ylmethyl)silane]
pest or weed control at 100 ppm [1]: 0% | pest or weed control at 100 ppm [2]: 0% | pest or weed control at 100 ppm [3]: 0% | pest or weed control at 100 ppm [4]: 100% | pest or weed control at 100 ppm [5]: 80% | pest or weed control at 100 ppm [6]: 50% | pest or weed control at 100 ppm [7]: 0% | pest or weed control at 100 ppm [8]: 0%

C[Si](Cn1ccnc1)(c1ccc(-c2ccccc2)cc1)c1ccc(-c2ccccc2)cc1 [bis(1,1'-Biphenyl-4-yl)(1H-imidazol-1-ylmethyl)methylsilane]
pest or weed control at 100 ppm [1]: 0% | pest or weed control at 100 ppm [2]: 50% | pest or weed control at 100 ppm [3]: 0% | pest or weed control at 100 ppm [4]: 0% | pest or weed control at 100 ppm [5]: 0% | pest or weed control at 100 ppm [6]: 60% | pest or weed control at 100 ppm [7]: 0% | pest or weed control at 100 ppm [8]: 0%

C[Si](Cn1ccnc1)(c1ccc(Cl)cc1Cl)c1ccc(Cl)cc1Cl [bis(2,4-Dichlorophenyl)(1H-imidazol-1-ylmethyl)methylsilane]
pest or weed control at 100 ppm [1]: 80% | pest or weed control at 100 ppm [2]: 40% | pest or weed control at 100 ppm [3]: 0% | pest or weed control at 100 ppm [4]: 100% | pest or weed control at 100 ppm [5]: 100% | pest or weed control at 100 ppm [6]: 90% | pest or weed control at 100 ppm [7]: 0% | pest or weed control at 100 ppm [8]: 80%

O[Si](Cn1ccnc1)(c1ccc(F)cc1)c1ccc(F)cc1 [bis(4-Fluorophenyl)hydroxy(1H-imidazol-1-ylmethyl)silane]
pest or weed control at 100 ppm [1]: 90% | pest or weed control at 100 ppm [2]: 0% | pest or weed control at 100 ppm [3]: 60% | pest or weed control at 100 ppm [4]: 100% | pest or weed control at 100 ppm [5]: 100% | pest or weed control at 100 ppm [6]: 50% | pest or weed control at 100 ppm [7]: 0% | pest or weed control at 100 ppm [8]: 0%

Clc1ccc([Si](Cn2ccnc2)(c2ccc(Cl)cc2)c2ccc(Cl)cc2)cc1 [tris(4-Chlorophenyl)(1H-imidazol-1-ylmethyl)silane]
pest or weed control at 100 ppm [1]: 0% | pest or weed control at 100 ppm [2]: 0% | pest or weed control at 100 ppm [3]: 0% | pest or weed control at 100 ppm [4]: 100% | pest or weed control at 100 ppm [5]: 0% | pest or weed control at 100 ppm [6]: 0% | pest or weed control at 100 ppm [7]: 0% | pest or weed control at 100 ppm [8]: 0%

Fc1ccc([Si](Cn2ccnc2)(c2ccc(F)cc2)c2ccc(F)cc2)cc1 [tris(4-Fluorophenyl)(1H-imidazol-1-ylmethyl)silane]
pest or weed control at 100 ppm [1]: 0% | pest or weed control at 100 ppm [2]: 0% | pest or weed control at 100 ppm [3]: 0% | pest or weed control at 100 ppm [4]: 100% | pest or weed control at 100 ppm [5]: 80% | pest or weed control at 100 ppm [6]: 0% | pest or weed control at 100 ppm [7]: 0% | pest or weed control at 100 ppm [8]: 0%
